Read-outs that look alike come from different tables or passages of the source.
Legend:
[1] = tested on: HCV genotype 1a (strain H77) subgenomic replicon with NS3 resistance mutation R155K in Huh-7 cells; assay: HCV replicon RNA replication assay (NS3 protease variants), genotype 1a R155K; type: cell-based; conditions: Hepatitis C virus
[2] = tested on: HCV genotype 1b (Con-1) subgenomic replicon with NS3 resistance mutation D168V in Huh-7 cells; assay: HCV replicon RNA replication assay (NS3 protease variants), genotype 1b D168V; type: cell-based; conditions: Hepatitis C virus
[3] = Huh-7, 72 h, read-out: R155K 1a EC50 (nM)
[4] = Huh-7, 72 h, read-out: D168V 1b EC50 (nM)

SMILES	EC50 [1, 3] [nM]	EC50 [2, 4] [nM]	EC50 ([1]; Huh-7, read-out: R155K 1a Ec50 (nM)) [nM]	EC50 ([2]; Huh-7, read-out: D168V 1b Ec50 (nM)) [nM]
COc1ccc2c(O[C@@H]3C[C@H]4C(=O)N[C@]5(C(=O)NS(=O)(=O)C6(C)CC6)C[C@H]5/C=C\CCCCC[C@H](NC(=O)c5ccn(C)n5)C(=O)N4C3)cc(OC3CC3)nc2c1C [Compound 1028, (2R,6S,12Z,13aS,14aR,16aS)-2-{[2-(cyclopropyloxy)-7-methoxy-8-methylquinolin-4-yl]oxy}-N-[(1-methylcyclopropyl)sulfonyl]-6-{[(1-methyl-1H-pyrazol-3-yl)carbonyl]amino}-5,16-dioxo-1,2,3,6,7,8,9,10,11,13a,14,15,16,16a-tetradecahydrocyclopropa[e]pyrrolo[1,2-a][1,4]diazacyclopentadecine-14a(5H)-carboxamide]	3.7	0.37	–	–
CC(C)Oc1cc(O[C@@H]2C[C@H]3C(=O)N[C@]4(C(=O)NS(=O)(=O)C5(C)CC5)C[C@H]4/C=C\CCCCC[C@H](NC(=O)c4ccn(C)n4)C(=O)N3C2)c2ccc(F)c(F)c2n1 [Compound 1008, (2R,6S,12Z,13aS,14aR,16aS)-2-{[7,8-difluoro-2-(propan-2-yloxy)quinolin-4-yl]oxy}-N-[(1-methylcyclopropyl)sulfonyl]-6-{[(1-methyl-1H-pyrazol-3-yl)carbonyl]amino}-5,16-dioxo-1,2,3,6,7,8,9,10,11,13a,14,15,16,16a-tetradecahydrocyclopropa[e]pyrrolo[1,2-a][1,4]diazacyclopentadecine-14a(5H)-carboxamide]	2.9	0.35	–	–
COc1ccc2c(O[C@@H]3C[C@H]4C(=O)N[C@]5(C(=O)NS(=O)(=O)C6(C)CC6)C[C@H]5/C=C\CCCCC[C@H](NC(=O)N5CC(OC)C5)C(=O)N4C3)cc(OC(C)C)nc2c1C [Compound 2003, (2R,6S,12Z,13aS,14aR,16aS)-6-{[(3-methoxyazetidin-1-yl)carbonyl]amino}-2-{[7-methoxy-8-methyl-2-(propan-2-yloxy)quinolin-4-yl]oxy}-N-[(1-methylcyclopropyl)sulfonyl]-5,16-dioxo-1,2,3,6,7,8,9,10,11,13a,14,15,16,16a-tetradecahydrocyclopropa[e]pyrrolo[1,2-a][1,4]diazacyclopentadecine-14a(5H)-carboxamide]	9.1	0.47	–	–
COc1ccc2c(O[C@@H]3C[C@H]4C(=O)N[C@]5(C(=O)NS(=O)(=O)C6CC6)C[C@H]5/C=C\CCCCC[C@H](NC(=O)N5CC(F)C5)C(=O)N4C3)cc(OC(C)C)nc2c1C [Compound 2007, (2R,6S,12Z,13aS,14aR,16aS)-N-(cyclopropylsulfonyl)-6-{[(3-fluoroazetidin-1-yl)carbonyl]amino}-2-{[7-methoxy-8-methyl-2-(propan-2-yloxy)quinolin-4-yl]oxy}-5,16-dioxo-1,2,3,6,7,8,9,10,11,13a,14,15,16,16a-tetradecahydrocyclopropa[e]pyrrolo[1,2-a][1,4]diazacyclopentadecine-14a(5H)-carboxamide]	9	0.71	–	–
CCOc1cc(O[C@@H]2C[C@H]3C(=O)N[C@]4(C(=O)NS(=O)(=O)C5(C)CC5)C[C@H]4/C=C\CCCCC[C@H](NC(=O)N4CC(F)C4)C(=O)N3C2)c2ccc(OC)c(C)c2n1 [Compound 2014, (2R,6S,12Z,13aS,14aR,16aS)-2-[(2-ethoxy-7-methoxy-8-methylquinolin-4-yl)oxy]-6-{[(3-fluoroazetidin-1-yl)carbonyl]amino}-N-[(1-methylcyclopropyl)sulfonyl]-5,16-dioxo-1,2,3,6,7,8,9,10,11,13a,14,15,16,16a-tetradecahydrocyclopropa[e]pyrrolo[1,2-a][1,4]diazacyclopentadecine-14a(5H)-carboxamide]	8.4	0.53	–	–
COc1c(Cl)ccc2c(O[C@@H]3C[C@H]4C(=O)N[C@]5(C(=O)NS(=O)(=O)C6(C)CC6)C[C@H]5/C=C\CCCCC[C@H](NC(=O)c5cnn(C)n5)C(=O)N4C3)cc(OC(C)C)nc12 [Compound 1011, (2R,6S,12Z,13aS,14aR,16aS)-2-{[7-chloro-8-methoxy-2-(propan-2-yloxy)quinolin-4-yl]oxy}-N-[(1-methylcyclopropyl)sulfonyl]-6-{[(2-methyl-2H-1,2,3-triazol-4-yl)carbonyl]amino}-5,16-dioxo-1,2,3,6,7,8,9,10,11,13a,14,15,16,16a-tetradecahydrocyclopropa[e]pyrrolo[1,2-a][1,4]diazacyclopentadecine-14a(5H)-carboxamide]	8.4	0.63	–	–
COc1ccc2c(O[C@@H]3C[C@H]4C(=O)N[C@]5(C(=O)NS(=O)(=O)C6(C)CC6)C[C@H]5/C=C\CCCCC[C@H](NC(=O)c5cc(C)n(C)n5)C(=O)N4C3)cc(OC(C)C)nc2c1C [Compound 1026, (2R,6S,12Z,13aS,14aR,16aS)-6-{[(1,5-dimethyl-1H-pyrazol-3-yl)carbonyl]amino}-2-{[7-methoxy-8-methyl-2-(propan-2-yloxy)quinolin-4-yl]oxy}-N-[(1-methylcyclopropyl)sulfonyl]-5,16-dioxo-1,2,3,6,7,8,9,10,11,13a,14,15,16,16a-tetradecahydrocyclopropa[e]pyrrolo[1,2-a][1,4]diazacyclopentadecine-14a(5H)-carboxamide]	3.3	0.32	–	–
COc1ccc2c(O[C@@H]3C[C@H]4C(=O)N[C@]5(C(=O)NS(=O)(=O)C6(C)CC6)C[C@H]5/C=C\CCCCC[C@H](NC(=O)N5CCCC5)C(=O)N4C3)cc(OC(C)C)nc2c1C [Compound 2020, (2R,6S,12Z,13aS,14aR,16aS)-2-{[7-methoxy-8-methyl-2-(propan-2-yloxy)quinolin-4-yl]oxy}-N-[(1-methylcyclopropyl)sulfonyl]-5,16-dioxo-6-[(pyrrolidin-1-ylcarbonyl)amino]-1,2,3,6,7,8,9,10,11,13a,14,15,16,16a-tetradecahydrocyclopropa[e]pyrrolo[1,2-a][1,4]diazacyclopentadecine-14a(5H)-carboxamide]	4	1.4	–	–
COc1ccc2c(O[C@@H]3C[C@H]4C(=O)N[C@]5(C(=O)NS(=O)(=O)C6CC6)C[C@H]5/C=C\CCCCC[C@H](NC(=O)c5ccc(C)s5)C(=O)N4C3)cc(OC(C)C)nc2c1C [Compound 1007, (2R,6S,12Z,13aS,14aR,16aS)-N-(cyclopropylsulfonyl)-2-{[7-methoxy-8-methyl-2-(propan-2-yloxy)quinolin-4-yl]oxy}-6-{[(5-methylthiophen-2-yl)carbonyl]amino}-5,16-dioxo-1,2,3,6,7,8,9,10,11,13a,14,15,16,16a-tetradecahydrocyclopropa[e]pyrrolo[1,2-a][1,4]diazacyclopentadecine-14a(5H)-carboxamide]	–	0.25	–	–
COc1c(Cl)ccc2c(O[C@@H]3C[C@H]4C(=O)N[C@]5(C(=O)NS(=O)(=O)C6(C)CC6)C[C@H]5/C=C\CCCCC[C@H](NC(=O)c5ccn(C)n5)C(=O)N4C3)cc(OC(C)C)nc12 [Compound 1010, (2R,6S,12Z,13aS,14aR,16aS)-2-{[7-chloro-8-methoxy-2-(propan-2-yloxy)quinolin-4-yl]oxy}-N-[(1-methylcyclopropyl)sulfonyl]-6-{[(1-methyl-1H-pyrazol-3-yl)carbonyl]amino}-5,16-dioxo-1,2,3,6,7,8,9,10,11,13a,14,15,16,16a-tetradecahydrocyclopropa[e]pyrrolo[1,2-a][1,4]diazacyclopentadecine-14a(5H)-carboxamide]	7	0.33	–	–
COc1ccc2c(O[C@@H]3C[C@H]4C(=O)N[C@]5(C(=O)NS(=O)(=O)C6CC6)C[C@H]5/C=C\CCCCC[C@H](NC(=O)N5CCC5)C(=O)N4C3)cc(OC(C)C)nc2c1C [Compound 2005, (2R,6S,12Z,13aS,14aR,16aS)-6-[(azetidin-1-ylcarbonyl)amino]-N-(cyclopropylsulfonyl)-2-{[7-methoxy-8-methyl-2-(propan-2-yloxy)quinolin-4-yl]oxy}-5,16-dioxo-1,2,3,6,7,8,9,10,11,13a,14,15,16,16a-tetradecahydrocyclopropa[e]pyrrolo[1,2-a][1,4]diazacyclopentadecine-14a(5H)-carboxamide]	4.8	0.82	–	–
Cc1c(F)ccc2c(O[C@@H]3C[C@H]4C(=O)N[C@]5(C(=O)NS(=O)(=O)C6(C)CC6)C[C@H]5/C=C\CCCCC[C@H](NC(=O)N(C)C)C(=O)N4C3)cc(OC(C)C)nc12 [Compound 2018, (2R,6S,12Z,13aS,14aR,16aS)-6-[(dimethylcarbamoyl)amino]-2-{[7-fluoro-8-methyl-2-(propan-2-yloxy)quinolin-4-yl]oxy}-N-[(1-methylcyclopropyl)sulfonyl]-5,16-dioxo-1,2,3,6,7,8,9,10,11,13a,14,15,16,16a-tetradecahydrocyclopropa[e]pyrrolo[1,2-a][1,4]diazacyclopentadecine-14a(5H)-carboxamide]	5.7	1.2	–	–
CC(C)(C)OC(=O)N[C@H]1CCCCC/C=C\C2C[C@@]2(C(=O)NS(=O)(=O)C2CC2)NC(=O)[C@@H]2C[C@@H](OC(=O)N3Cc4cccc(F)c4C3)CN2C1=O (some centres unmarked) [reference compound]	–	–	690	120
COc1ccc2c(O[C@@H]3C[C@H]4C(=O)N[C@]5(C(=O)NS(=O)(=O)C6CC6)C[C@H]5/C=C\CCCCC[C@H](NC(=O)c5cc[nH]n5)C(=O)N4C3)cc(OC(C)C)nc2c1C [Compound 1016, (2R,6S,12Z,13aS,14aR,16aS)-N-(cyclopropylsulfonyl)-2-{[7-methoxy-8-methyl-2-(propan-2-yloxy)quinolin-4-yl]oxy}-5,16-dioxo-6-[(1H-pyrazol-3-ylcarbonyl)amino]-1,2,3,6,7,8,9,10,11,13a,14,15,16,16a-tetradecahydrocyclopropa[e]pyrrolo[1,2-a][1,4]diazacyclopentadecine-14a(5H)-carboxamide]	–	0.92	–	–

Reference: patent publication US20110294778A1, “HEPATITIS C INHIBITOR COMPOUNDS” (priority 2009, published 2011)
